The values below come from PubChem BioAssay AID330 (DTP/NCI, 2004).

In the assay the test system is P388 leukemia ip, CD2F1 mice, survival T/C. The assay can be described thus: NCI In Vivo Anticancer Drug Screen. Data for tumor model P388 Leukemia (intraperitoneal) in CD2F1 (CDF1) mice. The conditions noted are these: endpoint: median survival time, higher = longer survival. An outline of the steps:
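Mice carrying the transplanted tumor received test compound or vehicle. Survival was recorded in each group, and the value is the treated-group measurement divided by that of the vehicle-treated control group.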

Where [1] appears, read: dose: 50.0 mg/kg/injection, schedule: Q01DX009 (ip), vehicle: Klucel (hydroxypropylcellulose) (HPC).
[2] abbreviates: dose: 100.0 mg/kg/injection, schedule: Q01DX009 (ip), vehicle: Klucel (hydroxypropylcellulose) (HPC).
[3] abbreviates: dose: 25.0 mg/kg/injection, schedule: Q01DX009 (ip), vehicle: saline with Tween-80.
The mark [4] stands for this setting: dose: 60.0 mg/kg/injection, schedule: Q01DX005 (ip), vehicle: saline with Tween-80.
The mark [5] stands for this setting: dose: 120.0 mg/kg/injection, schedule: Q01DX005 (ip), vehicle: saline with Tween-80.
Setting [6] is: dose: 200.0 mg/kg/injection, schedule: Q01DX009 (ip), vehicle: Klucel (hydroxypropylcellulose) (HPC).
Setting [7] is: dose: 100.0 mg/kg/injection, schedule: Q01DX001 (ip), vehicle: Klucel (hydroxypropylcellulose) (HPC).
The mark [8] stands for this setting: dose: 240.0 mg/kg/injection, schedule: Q01DX005 (ip), vehicle: saline with Tween-80.
The mark [9] stands for this setting: dose: 60.0 mg/kg/injection, schedule: Q01DX005 (ip), vehicle: Klucel (hydroxypropylcellulose) (HPC).
Setting [10] is: dose: 120.0 mg/kg/injection, schedule: Q01DX005 (ip), vehicle: Klucel (hydroxypropylcellulose) (HPC).
[11] abbreviates: dose: 240.0 mg/kg/injection, schedule: Q01DX005 (ip), vehicle: Klucel (hydroxypropylcellulose) (HPC).

Each structure is given as a SMILES string. “And” between values parts separate entries of the source, which are not always exact repeats. Equal entries are not always repeated. Inconclusive results and toxic doses are left out.

On to `C/C=C\C#C/C=C1/C=CC(=O)O1`, for which the T/C (dose: 12.5 mg/kg/injection, schedule: Q01DX009 (ip), vehicle: Klucel (hydroxypropylcellulose) (HPC)) is 105 % of control; the T/C (dose: 25.0 mg/kg/injection, schedule: Q01DX009 (ip), vehicle: Klucel (hydroxypropylcellulose) (HPC)) is 105 % of control; the T/C under setting [1] was 108 % of control; the T/C under setting [2] was 108 % of control.
For `O=c1nc(-c2ccccc2)sc(=O)[nH]1`, the T/C is 102 % of control under setting [1] and 111 % of control under setting [2].
For `C=CCn1c(-c2cccc(O)c2)n[nH]c1=S`, the T/C is 104 % of control under setting [3]; 115 % of control (dose: 50.0 mg/kg/injection, schedule: Q01DX009 (ip), vehicle: saline with Tween-80); 96 % of control (dose: 100.0 mg/kg/injection, schedule: Q01DX009 (ip), vehicle: saline with Tween-80).
Consider `C1CN2CCCN3CCCN(C1)P23`, for which the T/C by setting is: (dose: 100.0 mg/kg/injection, schedule: Q04DX002 (ip), vehicle: saline) 115 % of control; (dose: 200.0 mg/kg/injection, schedule: Q04DX002 (ip), vehicle: saline) 98 % of control.
For the compound `O=C(/C=C/c1c[nH]c2ccccc12)c1ccccc1[N+](=O)[O-]`, the T/C by setting is: under setting [4], 94 % of control; under setting [5], 90 % of control.
Take `CC1(c2ccccc2)OC1(C)c1ccccc1` (stereo not drawn): the T/C was 103 % of control under setting [1], 103 % of control under setting [2] and 103 % of control under setting [6].
`CC(=O)N1CCCN(C)/C1=N/[N+](=O)[O-]`: the T/C was 103 % of control (dose: 60.0 mg/kg/injection, schedule: Q01DX005 (ip), vehicle: saline); 100 % of control (dose: 120.0 mg/kg/injection, schedule: Q01DX005 (ip), vehicle: saline); 108 % of control (dose: 240.0 mg/kg/injection, schedule: Q01DX005 (ip), vehicle: saline).
On to `OC1(c2ccc(C3(O)C(c4ccccc4)=C(c4ccccc4)C(c4ccccc4)=C3c3ccccc3)cc2)C(c2ccccc2)=C(c2ccccc2)C(c2ccccc2)=C1c1ccccc1`, for which the T/C runs as follows: under setting [1], 105 % of control; under setting [2], 86 % of control; under setting [6], 90 % of control.
`O=C1CCCC2OC3CCCC(=O)C3C(c3ccccc3)C12` (stereo not drawn): the T/C is, setting by setting: (dose: 25.0 mg/kg/injection, schedule: Q01DX001 (ip), vehicle: Klucel (hydroxypropylcellulose) (HPC)) 96 % of control; (dose: 50.0 mg/kg/injection, schedule: Q01DX001 (ip), vehicle: Klucel (hydroxypropylcellulose) (HPC)) 100 % of control; under setting [7], 90 % of control.
Consider `CNS(=O)(=O)c1cc([N+](=O)[O-])c(N2CCCCC2)c([N+](=O)[O-])c1`, for which the T/C runs as follows: under setting [1], 100 % of control; under setting [2], 100 % of control; under setting [6], 99 % of control.
`C=C(NC(C)=O)C(=O)O`: the T/C runs as follows: (dose: 6.25 mg/kg/injection, schedule: Q01DX009 (ip), vehicle: saline with Tween-80) 103 % of control; (dose: 12.5 mg/kg/injection, schedule: Q01DX009 (ip), vehicle: saline with Tween-80) 101 % of control and 86 % of control; (dose: 12.5 mg/kg/injection, schedule: Q04DX003 (ip), vehicle: saline with Tween-80) 104 % of control; under setting [3], 108 % of control; (dose: 25.0 mg/kg/injection, schedule: Q04DX003 (ip), vehicle: saline with Tween-80) 103 % of control; (dose: 50.0 mg/kg/injection, schedule: Q04DX003 (ip), vehicle: saline with Tween-80) 101 % of control. Besides, where the note is “dose: 100.0 mg/kg/injection, schedule: Q01DX001 (ip), vehicle: saline with Tween-80”, the T/C is 101 % of control.
As for `CCCc1nc(N)[nH]c(=O)c1CCCCc1ccccc1`, the T/C runs as follows: under setting [4], 90 % of control and 96 % of control; under setting [5], 88 % of control and 103 % of control; under setting [8], 96 % of control and 87 % of control.
As for `CCOC(=O)C(N)CSC(c1ccccc1)(c1ccccc1)c1ccccc1` (stereo not drawn), the T/C is, setting by setting: (dose: 12.5 mg/kg/injection, schedule: Q01DX009 (ip), vehicle: water) 117 % of control and 98 % of control; (dose: 25.0 mg/kg/injection, schedule: Q01DX009 (oral), vehicle: water) 114 % of control; (dose: 50.0 mg/kg/injection, schedule: Q01DX009 (ip), vehicle: water) 155 % of control; (dose: 200.0 mg/kg/injection, schedule: Q04DX003 (ip), vehicle: saline) 180 % of control.
As for `COc1ccc(Cn2nnc(C(N)=O)c2Cl)cc1`, the T/C by setting is: under setting [7], 99 % of control; (dose: 200.0 mg/kg/injection, schedule: Q01DX001 (ip), vehicle: Klucel (hydroxypropylcellulose) (HPC)) 99 % of control; (dose: 400.0 mg/kg/injection, schedule: Q01DX001 (ip), vehicle: Klucel (hydroxypropylcellulose) (HPC)) 89 % of control.
Regarding `Cn1c(N=P(c2ccccc2)(c2ccccc2)c2ccccc2)cc(=O)n(C)c1=O`, the T/C is 101 % of control under setting [9], 102 % of control under setting [10] and 101 % of control under setting [11].
As for `Cn1cnc2c(=O)[nH]c(N)nc21`, the T/C reads like this: (dose: 50.0 mg/kg/injection, schedule: Q01DX005 (ip), vehicle: saline with Tween-80) 102 % of control; (dose: 100.0 mg/kg/injection, schedule: Q01DX005 (ip), vehicle: saline with Tween-80) 107 % of control; (dose: 200.0 mg/kg/injection, schedule: Q01DX005 (ip), vehicle: saline with Tween-80) 107 % of control.
For `Cc1cccc(CO)c1-c1c(C)cccc1CO`, the T/C is, setting by setting: (dose: 50.0 mg/kg/injection, schedule: Q01DX005 (ip), vehicle: Klucel (hydroxypropylcellulose) (HPC)) 101 % of control; (dose: 100.0 mg/kg/injection, schedule: Q01DX005 (ip), vehicle: Klucel (hydroxypropylcellulose) (HPC)) 108 % of control; (dose: 200.0 mg/kg/injection, schedule: Q01DX005 (ip), vehicle: Klucel (hydroxypropylcellulose) (HPC)) 100 % of control.
`O=C(CNC(=O)Nc1cccc(C(F)(F)F)c1)NNC(=O)Nc1ccc(Cl)c([N+](=O)[O-])c1`: the T/C is, setting by setting: under setting [4], 92 % of control; under setting [5], 87 % of control; under setting [8], 92 % of control.
`N#C/C(=N\Nc1ccccc1Cl)C(=O)C1CC1`: the T/C is, setting by setting: under setting [9], 100 % of control; under setting [10], 100 % of control; under setting [11], 89 % of control.
`O=C(O)Cc1cc(Br)c(O)c(Br)c1`: the T/C is 107 % of control (dose: 12.5 mg/kg/injection, schedule: Q01DX009 (ip), vehicle: distilled water + Tween-80); 107 % of control (dose: 25.0 mg/kg/injection, schedule: Q01DX009 (ip), vehicle: distilled water + Tween-80); 98 % of control (dose: 50.0 mg/kg/injection, schedule: Q01DX009 (ip), vehicle: distilled water + Tween-80); 98 % of control (dose: 100.0 mg/kg/injection, schedule: Q01DX009 (ip), vehicle: distilled water + Tween-80); 100 % of control (dose: 200.0 mg/kg/injection, schedule: Q01DX009 (ip), vehicle: distilled water + Tween-80).
On to `Cn1c(=O)c2c(nnc(-c3ccc(Cl)cc3)[n+]2[O-])n(C)c1=O`, for which the T/C under setting [7] is 106 % of control.
Turning to `COC1OC(CO)C2OC12` (stereo not drawn), the T/C is 93 % of control and 103 % of control (dose: 50.0 mg/kg/injection, schedule: Q01DX005 (ip), vehicle: saline); 94 % of control and 100 % of control (dose: 100.0 mg/kg/injection, schedule: Q01DX005 (ip), vehicle: saline); 88 % of control and 99 % of control (dose: 200.0 mg/kg/injection, schedule: Q01DX005 (ip), vehicle: saline).
`COc1ccc2nc3cc(Cl)ccc3c(NCCCCCCNc3c4ccc(Cl)cc4nc4ccc(OC)nc34)c2n1`: the T/C was 93 % of control under setting [1] and 105 % of control under setting [2].
In the case of `NNc1c(C(N)=O)c2c(N)ncnc2n1C1OC(CO)C(O)C1O` (stereo not drawn), the T/C is 157 % of control (dose: 3.12 mg/kg/injection, schedule: Q01DX005 (ip), vehicle: Klucel (hydroxypropylcellulose) (HPC)); 166 % of control (dose: 6.25 mg/kg/injection, schedule: Q01DX005 (ip), vehicle: Klucel (hydroxypropylcellulose) (HPC)); 157 % of control (dose: 12.5 mg/kg/injection, schedule: Q01DX005 (ip), vehicle: Klucel (hydroxypropylcellulose) (HPC)); 115 % of control (dose: 50.0 mg/kg/injection, schedule: Q04DX003 (ip), vehicle: Klucel (hydroxypropylcellulose) (HPC)); 115 % of control (dose: 100.0 mg/kg/injection, schedule: Q04DX003 (ip), vehicle: Klucel (hydroxypropylcellulose) (HPC)); 120 % of control (dose: 100.0 mg/kg/injection, schedule: Q04DX003 (ip), vehicle: water). The T/C (dose: 200.0 mg/kg/injection, schedule: Q04DX003 (ip), vehicle: water) is 86 % of control.
